This assay deals with T1, TrkA receptor (Homo sapiens, UniProt P04629).
T1 construct: host or cells: U2OS (PathHunter, 'TrkA p75' cells)
T1 sequence (P04629 33-796): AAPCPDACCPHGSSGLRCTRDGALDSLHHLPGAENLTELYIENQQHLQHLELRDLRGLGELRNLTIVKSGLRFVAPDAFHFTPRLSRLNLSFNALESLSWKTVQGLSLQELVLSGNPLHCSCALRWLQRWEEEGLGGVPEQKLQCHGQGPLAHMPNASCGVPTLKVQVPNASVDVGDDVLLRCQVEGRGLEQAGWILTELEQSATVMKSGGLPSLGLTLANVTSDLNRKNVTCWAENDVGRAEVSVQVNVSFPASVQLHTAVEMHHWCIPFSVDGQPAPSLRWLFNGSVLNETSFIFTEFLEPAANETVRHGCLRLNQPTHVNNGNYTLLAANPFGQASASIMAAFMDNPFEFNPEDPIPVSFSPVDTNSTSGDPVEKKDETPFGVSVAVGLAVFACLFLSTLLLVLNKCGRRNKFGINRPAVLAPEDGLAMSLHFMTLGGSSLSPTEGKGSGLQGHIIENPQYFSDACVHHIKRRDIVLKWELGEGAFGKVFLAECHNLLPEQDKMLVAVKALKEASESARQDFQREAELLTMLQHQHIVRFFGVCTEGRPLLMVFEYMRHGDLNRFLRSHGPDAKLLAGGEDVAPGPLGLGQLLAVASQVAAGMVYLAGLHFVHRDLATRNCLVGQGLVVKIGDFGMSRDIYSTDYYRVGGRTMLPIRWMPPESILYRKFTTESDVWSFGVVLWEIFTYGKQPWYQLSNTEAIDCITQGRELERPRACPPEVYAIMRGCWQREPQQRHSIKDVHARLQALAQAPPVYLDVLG
In words: DiscoverX PathHunter TrkA functional assay (NGF-stimulated U2OS cells). Format: cell-based. The conditions noted are these: U2OS cells expressing TrkA-Prolink fusion and Shc1-EA; compound 1 hour, then EC80 NGF 3 hours; luminescence. The method, then: TrkA functional activity was measured using a DiscoverX PathHunter assay. In this assay, U2OS cells are express TrkA receptor as a fusion with the weakly complementing fragment of B-galactosidase, which DiscoverX calls “Prolink (PK)”; additionally, Shcl is fused with a larger fragment, which is called “Enzyme Acceptor (EA)”. Activation of the TrkA receptor, upon NGF addition, results in the kinase domain being phosphorylated, resulting in subsequent recruitment of Shcl-EA protein. That recruitment results in an active B-galactosidase enzyme that is detected by addition of a chemiluminescent substrate.
All reagents were purchased from DiscoverX, except for the receptor agonists (NGF, BDNF, NT3) which were purchased from Peprotech. Cells were expanded and frozen into cryovials (TrkA p75 @passage 13, 1.5×10^7 cells/vial; TrkC p75 @passage 11, 1.5×10^7 cells/vial in InVitrogen Recovery Cell Freezing media), and stored in the vapor phase of liquid nitrogen, and thawed immediately before use. Thawed cells were added to a 384-well plate (BD Falcon 384-well white/clear, TC surface 120 uL assay plates (353963), 20 uL of 0.375e6 cells/mL=>7500 cells/well), and allowed to incubate overnight. Compound (10 mM starting dose: 202.5 nL compound yielding 0.81% DMSO final in total assay volume and starting doses 81 uM) was added the following morning and allowed to incubate on cells for 1 hour. Then, 5 uL EC80 of agonist (NGF for TrkA; BDNF for TrkB; NT3 for TrkC) was added and allowed to incubate for 3 hours at room temperature. DiscoverX PathHunter detection reagent is added (12 uL to plate and components diluted in parts as per kit instructions) and the plate is further incubated for 1 hour in the dark. The plate is read via luminescence on the Perkin Elmer Envision.
In turn, `O=C(Nc1c(-c2ccccc2)nc2sccn12)NC1c2ccccc2-c2ccccc21` [Compound 6, 1-(9H-fluoren-9-yl)-3-(6-phenylimidazo [2,1-b][1,3]thiazol-5-yl)urea] came in with an IC50 of 35 nM.
Next, `O=C(Nc1ccnc(-c2ccccc2)c1)NC1c2ccccc2-c2ccccc21` [Compound 80, 1-(9H-fluoren-9-yl)-3-(2-phenylpyridin-4-yl)urea]: 670 nM; `Cc1nc(-c2ccccc2)c(NC(=O)NC2c3ccccc3-c3ccccc32)s1` [Compound 2, 1-(9H-fluoren-9-yl)-3-(2-methyl-4-phenyl-1,3-thiazol-5-yl)urea]: 140 nM.
Next, `CC(C)(C)c1cc(NC(=O)NC2c3ccccc3-c3ccccc32)n(-c2ccccc2)n1` [Compound 16, 1-(3-tert-butyl-1-phenyl-1H-pyrazol-5-yl)-3-(9H-fluoren-9-yl)urea]: 69 nM; `O=C(Nc1cccnc1-c1cccnc1)NC1c2ccccc2-c2ccccc21` [Compound 51, 1-(2,3′-bipyridin-3-yl)-3-(9H-fluoren-9-yl)urea]: 3000 nM.
The result for `Cc1cc(NC(=O)NC2c3ccccc3-c3ccccc32)n(-c2ccccc2)n1` [Compound 7, 1-(9H-fluoren-9-yl)-3-(3-methyl-1-phenyl-1H-pyrazol-5-yl)urea] reads 44 nM; that for `O=C(Nc1cccnc1-c1ccccc1F)NC1c2ccccc2-c2ccccc21` [Compound 76, 1-(9H-fluoren-9-yl)-3-[2-(2-fluorophenyl)pyridin-3-yl]urea], 320 nM; that for `Cc1ccc(NC(=O)NC2c3ccccc3-c3ccccc32)c(-c2ccccc2)n1` [Compound 1, 1-(9H-fluoren-9-yl)-3-(6-methyl-2-phenylpyridin-3-yl)urea], 69 nM.
`O=C(Nc1cccc(-c2nc(C3CC3)n[nH]2)c1)NC1c2ccccc2-c2ccccc21` [Compound 45, 1-[3-(3-cyclopropyl-1H-1,2,4-triazol-5-yl)phenyl]-3-(9H-fluoren-9-yl)urea] displayed an IC50 of 1400 nM.
The result for `Cc1nccn1-c1cccc(NC(=O)NC2c3ccccc3-c3ccccc32)c1` [Compound 38, 1-(9H-fluoren-9-yl)-3-[3-(2-methyl-1H-imidazol-1-yl)phenyl]urea] reads 3000 nM; that for `O=C(Nc1cc(-c2ccccc2)nn1-c1ccccc1)NC1c2ccccc2-c2ccccc21` [Compound 15, 1-(1,3-diphenyl-1H-pyrazol-5-yl)-3-(9H-fluoren-9-yl)urea], 3000 nM; that for `Cn1ncnc1-c1cccc(NC(=O)NC2c3ccccc3-c3ccccc32)c1` [Compound 79, 1-(9H-fluoren-9-yl)-3-[3-(1-methyl-1H-1,2,4-triazol-5-yl)phenyl]urea], 73 nM.
The result for `Cc1cnc(-c2cccc(NC(=O)NC3c4ccccc4-c4ccccc43)c2)o1` [Compound 62, 1-(9H-fluoren-9-yl)-3-[3-(5-methyl-1,3-oxazol-2-yl)phenyl]urea] reads 1300 nM.
`O=C(Nc1c2cnc3ccccc3c2nn1-c1ccccc1)NC1c2ccccc2-c2ccccc21` [Compound 25, 1-(9H-fluoren-9-yl)-3-(2-phenyl-2H-pyrazolo[4,3-c]quinolin-3-yl)urea] returned an IC50 of 1400 nM.
Next, `O=C(Nc1cccc(-n2cnnn2)c1)NC1c2ccccc2-c2ccccc21` [Compound 57, 1-(9H-fluoren-9-yl)-3-[3-(1H-tetrazol-1-yl)phenyl]urea]: 1300 nM; `O=C(Nc1cccnc1-c1ccco1)NC1c2ccccc2-c2ccccc21` [Compound 54, 1-(9H-fluoren-9-yl)-3-(2-furan-2-ylpyridin-3-yl)urea]: 2800 nM; `Cc1ccc(NC(=O)NC2c3ccccc3-c3ccccc32)c(-c2ccc(F)cc2)n1` [Compound 5, 1-(9H-fluoren-9-yl)-3-[2-(4-fluorophenyl)-6-methylpyridin-3-yl]urea]: 230 nM.
`Cn1nnc(-c2cccc(NC(=O)NC3c4ccccc4-c4ccccc43)c2)n1` [Compound 32, 1-(9H-fluoren-9-yl)-3-[3-(2-methyl-2H-tetrazol-5-yl)phenyl]urea] came in with a concentration for half-maximal inhibition (IC50) of 1200 nM.

What is called IC50 is the point on the concentration scale where inhibition reaches its midpoint. A lower IC50 goes with higher potency.

For the origin of these results see patent US9718782B2, “TrkA kinase inhibitors, compositions and methods thereof” (MERCK SHARP & DOHME CORP, priority 2013, dated 2017).
